ChEMBL document CHEMBL1150536, “Synthesis and pharmacological characterization of l-trans-4-tetrazolylproline (ly300020): A novel systemically-active ampa receptor agonist” (Bioorg Med Chem Lett, 1993)
pIC50: −log10 of the molar value. The source made the active and inactive calls. The rule behind the calls is not given here.

Tests used:
[1] = target: Glutamate receptor ionotropic, kainate; test: Tested for the ability to displace [3H]kainate (5 nM) binding from Ionotropic glutamate receptor kainate in rat forebrain membranes; type: cell membranes, Membrane
Rattus norvegicus = organism: Rattus norvegicus; test: Tested for the ability to antagonize depolarizations induced by NMDA (40 uM), AMPA (40 uM); insignificant; type: functional
[2] = target: Glutamate receptor ionotropic, NMDA 2C (Rattus norvegicus, UniProt Q00961); test: Tested for the ability to displace [3H]CGS-19,755 (10 nM) binding in rat forebrain membranes for NMDA receptor; type: cell membranes, Membrane
Chain of Glutamate receptor ionotropic, NMDA 2C (Q00961 whole entry): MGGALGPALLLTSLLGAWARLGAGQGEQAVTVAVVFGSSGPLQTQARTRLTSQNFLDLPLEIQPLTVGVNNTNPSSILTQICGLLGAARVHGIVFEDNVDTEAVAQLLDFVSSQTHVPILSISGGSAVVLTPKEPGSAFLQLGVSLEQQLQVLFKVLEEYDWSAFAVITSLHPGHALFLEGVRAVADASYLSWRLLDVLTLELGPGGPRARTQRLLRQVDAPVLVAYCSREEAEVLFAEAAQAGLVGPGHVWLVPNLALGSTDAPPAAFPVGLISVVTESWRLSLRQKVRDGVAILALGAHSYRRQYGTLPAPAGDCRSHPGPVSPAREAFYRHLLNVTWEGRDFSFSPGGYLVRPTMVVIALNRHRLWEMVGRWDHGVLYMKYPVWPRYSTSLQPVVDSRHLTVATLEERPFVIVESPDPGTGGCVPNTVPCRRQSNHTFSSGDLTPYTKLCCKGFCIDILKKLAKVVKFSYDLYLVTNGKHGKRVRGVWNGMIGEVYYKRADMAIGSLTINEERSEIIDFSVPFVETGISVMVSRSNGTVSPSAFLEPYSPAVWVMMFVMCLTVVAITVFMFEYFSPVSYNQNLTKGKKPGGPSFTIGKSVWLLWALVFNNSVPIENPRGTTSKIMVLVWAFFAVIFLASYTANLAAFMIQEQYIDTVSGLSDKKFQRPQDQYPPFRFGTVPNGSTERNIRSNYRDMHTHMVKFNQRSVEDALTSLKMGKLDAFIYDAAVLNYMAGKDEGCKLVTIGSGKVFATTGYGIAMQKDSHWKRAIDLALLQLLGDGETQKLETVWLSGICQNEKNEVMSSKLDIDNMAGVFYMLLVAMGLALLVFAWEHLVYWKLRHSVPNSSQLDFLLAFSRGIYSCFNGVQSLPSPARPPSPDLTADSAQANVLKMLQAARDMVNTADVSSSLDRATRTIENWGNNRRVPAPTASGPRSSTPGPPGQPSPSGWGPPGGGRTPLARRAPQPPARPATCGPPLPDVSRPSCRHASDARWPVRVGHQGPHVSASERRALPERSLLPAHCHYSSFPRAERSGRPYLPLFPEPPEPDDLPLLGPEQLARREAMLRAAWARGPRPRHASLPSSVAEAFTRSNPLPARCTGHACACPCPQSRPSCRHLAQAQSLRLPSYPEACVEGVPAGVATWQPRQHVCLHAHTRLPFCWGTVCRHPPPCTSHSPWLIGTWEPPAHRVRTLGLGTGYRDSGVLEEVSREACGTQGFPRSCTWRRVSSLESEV

[3] = target: Glutamate receptor ionotropic, AMPA (Rattus norvegicus, UniProt P19490+P19491+P19492+P19493); test: Tested for the ability to displace [3H]AMPA (5 nM) from Ionotropic glutamate receptor AMPA in rat forebrain membranes; type: cell membranes, Membrane

Row | SMILES | pIC50 [1] | Effect (Rattus norvegicus) | pIC50 [2] | pIC50 [3]
1 | O=C(O)[C@@H]1C[C@@H](c2nnn[nH]2)CN1 | 4.21 | inactive | < 4.00 | 5.47
2 | O=C(O)[C@H]1C[C@H](c2nnn[nH]2)CN1 | < 4.00 | – | < 4.00 | < 4.00
3 | O=C(O)[C@H]1CN[C@H](C(=O)O)C1 | < 4.00 | – | < 4.00 | < 4.00
